According to ChEMBL document CHEMBL1145254, “5-Lipoxygenase inhibitors: convenient synthesis of 4-[3-(4-heterocyclylphenylthio)phenyl]-3,4,5,6-tetrahydro-2H-pyran-4-carboxamide analogues” (Bioorg Med Chem Lett, 2005):

Biological target: T1, Polyunsaturated fatty acid 5-lipoxygenase (Homo sapiens, UniProt P09917)
T1 sequence (P09917 whole entry): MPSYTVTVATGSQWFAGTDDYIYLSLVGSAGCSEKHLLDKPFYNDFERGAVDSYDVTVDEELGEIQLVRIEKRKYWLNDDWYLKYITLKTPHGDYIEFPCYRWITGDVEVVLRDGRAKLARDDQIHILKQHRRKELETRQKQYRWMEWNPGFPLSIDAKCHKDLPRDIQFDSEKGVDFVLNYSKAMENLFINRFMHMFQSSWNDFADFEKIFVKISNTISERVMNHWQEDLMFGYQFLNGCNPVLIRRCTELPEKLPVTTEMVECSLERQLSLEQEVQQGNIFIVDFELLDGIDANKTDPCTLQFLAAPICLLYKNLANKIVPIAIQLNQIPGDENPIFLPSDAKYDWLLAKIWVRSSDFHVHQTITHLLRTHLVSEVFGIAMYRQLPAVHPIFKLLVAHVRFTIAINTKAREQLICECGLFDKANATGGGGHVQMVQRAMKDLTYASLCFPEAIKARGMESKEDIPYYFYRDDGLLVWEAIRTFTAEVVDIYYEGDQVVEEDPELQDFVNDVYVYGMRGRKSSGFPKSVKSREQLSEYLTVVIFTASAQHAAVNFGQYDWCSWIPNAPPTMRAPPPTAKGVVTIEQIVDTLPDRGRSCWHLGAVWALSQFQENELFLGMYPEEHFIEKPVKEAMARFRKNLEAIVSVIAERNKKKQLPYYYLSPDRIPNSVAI
Experiment: (§1) Inhibition of 5-lipoxygenase mediated LTB4 synthesis in A-23187 simulated human whole blood
Assay type: functional, tissue-based
Details: not given

| SMILES | IC50 [µM] |
| --- | --- |
| NC(=O)C1(c2cccc(Sc3ccc(Cn4cccc4)cc3)c2)CCOCC1 | 0.27 |
| CO/N=C/C1(c2cccc(Sc3ccc(-n4ccnc4C)cc3)c2)CCOCC1 | 0.15 |
| Cc1nccn1Cc1ccc(Sc2cccc(C3(C(N)=O)CCOCC3)c2)cc1 | 0.14 |
| NC(=O)C1(c2cccc(Sc3ccc(-n4cnnc4)cc3)c2)CCOCC1 | > 1 |
| Cc1cc(C)n(-c2ccc(Sc3cccc(C4(C(N)=O)CCOCC4)c3)cc2)n1 | > 1 |

Now from value to compound:

| IC50 [µM] | SMILES |
| --- | --- |
| 0.83 | Cc1nccn1-c1ccc(Sc2cccc([C@]3(C(N)=O)CC4CC[C@H](C3)O4)c2)cc1 |
| 0.23 | Cc1nccn1-c1ccc(Sc2cccc(C3(C(N)=O)CCOCC3)c2)cc1 |
| > 1 | Cc1nccn1-c1ccc(Sc2cccc(C3(C(N)=O)CC4CCC(C3)O4)c2)cc1 (stereo unspecified) |

Biological target: T2, Polyunsaturated fatty acid 5-lipoxygenase (Homo sapiens) (UniProt P09917)
T2 sequence (whole entry): T1 sequence (P09917 whole entry)
Experiment: as §1
Assay type: functional, tissue-based
Details: concentration not given here

| inhibition [%] | SMILES |
| --- | --- |
| -1 | Cc1cc(C)n(-c2ccc(Sc3cccc(C4(C(N)=O)CCOCC4)c3)cc2)n1 |

Biological target: T3, Polyunsaturated fatty acid 5-lipoxygenase (Mus musculus) (UniProt P48999)
T3 sequence (whole entry): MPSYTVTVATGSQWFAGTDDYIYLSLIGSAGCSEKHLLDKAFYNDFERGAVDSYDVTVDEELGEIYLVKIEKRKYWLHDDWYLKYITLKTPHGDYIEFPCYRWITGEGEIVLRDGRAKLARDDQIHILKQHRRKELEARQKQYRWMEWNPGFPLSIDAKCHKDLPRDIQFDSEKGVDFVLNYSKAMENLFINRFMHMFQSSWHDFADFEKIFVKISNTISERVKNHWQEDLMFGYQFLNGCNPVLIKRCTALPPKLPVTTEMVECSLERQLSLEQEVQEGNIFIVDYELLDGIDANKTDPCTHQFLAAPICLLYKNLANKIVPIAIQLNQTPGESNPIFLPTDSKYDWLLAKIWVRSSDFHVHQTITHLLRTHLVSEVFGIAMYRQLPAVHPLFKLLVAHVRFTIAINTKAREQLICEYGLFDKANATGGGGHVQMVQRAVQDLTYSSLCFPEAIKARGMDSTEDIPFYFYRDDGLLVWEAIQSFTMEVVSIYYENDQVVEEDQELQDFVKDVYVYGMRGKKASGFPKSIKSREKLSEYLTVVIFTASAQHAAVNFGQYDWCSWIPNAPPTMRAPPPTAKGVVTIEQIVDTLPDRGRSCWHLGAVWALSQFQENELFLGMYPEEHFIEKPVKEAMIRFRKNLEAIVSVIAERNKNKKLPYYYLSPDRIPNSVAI
Experiment: Inhibition of 5-lipoxygenase-mediated platelet activating factor induced thrombosis in male mice
Assay type: functional
Details: not given

| SMILES | ED50 [mg/kg] |
| --- | --- |
| NC(=O)C1(c2cccc(Sc3ccc(Cn4cccc4)cc3)c2)CCOCC1 | 3 |
| CO/N=C/C1(c2cccc(Sc3ccc(-n4ccnc4C)cc3)c2)CCOCC1 | 2 |
| Cc1nccn1Cc1ccc(Sc2cccc(C3(C(N)=O)CCOCC3)c2)cc1 | > 20 |

Now from value to compound:

| ED50 [mg/kg] | SMILES |
| --- | --- |
| 7 | Cc1nccn1-c1ccc(Sc2cccc([C@]3(C(N)=O)CC4CC[C@H](C3)O4)c2)cc1 |
| 3.7 | Cc1nccn1-c1ccc(Sc2cccc(C3(C(N)=O)CCOCC3)c2)cc1 |

Biological target: T2, Polyunsaturated fatty acid 5-lipoxygenase (Homo sapiens)
Details: Blood, 1 uM

| inhibition [%] | SMILES |
| --- | --- |
| -7 | Cc1nccn1-c1ccc(Sc2cccc(C3(C(N)=O)CC4CCC(C3)O4)c2)cc1 (stereo unspecified) |

Biological target: T2, Polyunsaturated fatty acid 5-lipoxygenase (Homo sapiens)
Experiment: Inhibition of 5-lipoxygenase mediated LTB4 synthesis in A-23187 simulated human whole blood at 1 uM concentration
Assay type: functional, tissue-based
Details: not given

| inhibition [%] | SMILES |
| --- | --- |
| 1 | NC(=O)C1(c2cccc(Sc3ccc(-n4cnnc4)cc3)c2)CCOCC1 |
